The source of these data is US20040019018A1, “Rigid pyrrolidone modulators of pkc” (priority 2003, published 2004).

The subject of the test is PKC catalytic subunit. Nature of the test: Translocation of PKC catalytic subunit to the membrane fraction in human fibroblasts (Western blot). It counts as cell-based. Conditions: 15 min treatment, preliminary results. As for the experimental part:
A growing list of evidence implicated that protein kinase C (PKC) activation can increase the rate of the non-amyloidogenic, i.e. α-secretase processing in vitro.
Human fibroblasts were grown to confluence in 100 mm tissue culture dishes. On the day of the experiment, cells were rinsed twice with serum-free Dulbecco's modified Eagle's medium (DMEM) and incubated in the same medium for 2 hours. Cells were treated with the drugs above, or DMSO vehicle as control, for 15 min. The cells were then rinsed twice with ice-cold phosphate buffered saline (PBS), scraped in PBS, and collected by centrifugation. The pellets were suspended in homogenization buffer containing: 20 mM Tris-HCl, pH 7.5, 2 mM EDTA, 2 mM EGTA, 5 mM DTT, 0.32 M sucrose, 2 mM PMSF, […] aprotinin, and 20 µg/ml leupeptin. Homogenates were immersed in liquid nitrogen thawed, and centrifuged at 12,000 g for 20 min, and supernatants were used as the cytosolic fraction (C). The pellets were homogenized in the same buffer containing 1.0% Triton X-100, incubated on ice for 45 min, and centrifuged at 12,000 g for 30 min and the supernatants were used as the membrane fractions (M). After protein determination, equal amounts of proteins (approx. […]) were mixed with electrophoresis buffer, boiled for 5 min, and separated on 8% SDS-PAGE, and electrophoretically transferred to PVDF membranes. […]
(In western blotting, separated proteins are transferred to a membrane and probed.)

With `CCCCCCCCC#Cc1ccc2c(c1)C(C)(C(C)C)C1C(=O)NC(CO)C21` [Compound 1, (3S, 8R, 9S, 10S)-6-(dec-1′-ynyl)-3-hydroxymethyl-8-isopropyl-8-methyl-3,3a,8,8a-tetrahydro-2H-2-aza-cyclopenta[a]inden-1-one], the “translocation of PKC catalytic subunit from the cytosolic to the membrane fractions (activation)” value is listed as “able to cause the translocation”.
